Reference: patent US20060173068A1, “Amorphous and crystalline forms of dorzolamide hydrochloride and processes of making same” (priority 2005, published 2006)

Columns and labels:
[1] = Exposure of amorphous Dorzolamide HCl to about 160° C. for about 15 minutes, crystal form by XRD; assay type: physicochemical; details: oven, open glass weighing bottle
Method: (§1) The scanning parameters are as follows: the range is preferably about 2° to about 40° 2θ over a substantially continuous scan at a rate of about 3° per minute. The accuracy of peak positions is defined as ±0.2° due to experimental differences, such as instrumentations, sample preparations, and the like.

[2] = Effect of varying relative humidity on amorphous Dorzolamide hydrochloride (hygroscopicity chamber; LOD by TGA, crystal form by XRD); assay type: physicochemical
Method: as §1
Thermal Gravimetric Analysis (TGA) is preferably performed with a Mettler Toledo TGA/SDTA 851^e. Sample weights preferably range from about 7 to about 15 mg, the heating rate is preferably about 10° C. per minute in a N2 stream having a flow rate of about 50 ml per minute over a scan range of about 30° to about 250° C.
Each of a series of 200 mg samples of amorphous Dorzolamide hydrochloride are exposed to a relative humidity (RH) of one of 0, 20, 40, 60, 80, and 100 percent for a period of 5 days at room temperature in a hygroscopicity chamber. The loss on drying (LOD) of the samples is measured by TGA before and after exposure, and the values obtained are plotted against the RH values. In addition, the crystal form of each sample is measured by XRD before and after the exposure.

[3] = RH 0 %, 5 days, room temperature
[4] = RH 20 %, 5 days, room temperature
[5] = RH 40 %, 5 days, room temperature

## CCN[C@H]1C[C@H](C)S(=O)(=O)c2sc(S(N)(=O)=O)cc21.Cl [Amorphous Dorzolamide HCl, 5,6-dihydro-4-(S)-ethylamino-6-(S)-methyl-4H-thieno-[2,3-b]thiopyran-2-sulfonamide-7,7-dioxyde hydrochloride]
[1]
  Crystal form by XRD after heating: changed the material to the crystalline, anhydrous form II
[2]; Original sample, before exposure
  Crystal form by XRD: amorphous
[2]; Original sample, before exposure, LOD by TGA
  LOD (%): 2.7%
[2]; [3]
  Crystal form by XRD: amorphous
  LOD (%): 2.0%
[2]; [4]
  Crystal form by XRD: amorphous
  LOD (%): 2.9%
[2]; [5]
  Crystal form by XRD: amorphous
  LOD (%): 3.8%
[2]; RH 60 %, 5 days, room temperature
  LOD (%): 0.2%
[2]; RH 60 %, 5 days, room temperature, hydrochloride
  Crystal form by XRD: Form II
[2]; RH 60 %, 5 days, room temperature, listed as Dorzolamide HCl, hydrochloride
  Crystal form by XRD: transforms to crystal form II
[2]; RH 80 %, 5 days, room temperature
  LOD (%): 0.2%
[2]; RH 80 %, 5 days, room temperature, hydrochloride
  Crystal form by XRD: Form II
[2]; RH 80 %, 5 days, room temperature, listed as Dorzolamide HCl, hydrochloride
  Crystal form by XRD: transforms to crystal form II
[2]; RH 100 %, 5 days, room temperature
  LOD (%): 0.2%
[2]; RH 100 %, 5 days, room temperature, hydrochloride
  Crystal form by XRD: Form II
[2]; RH 100 %, 5 days, room temperature, listed as Dorzolamide HCl, hydrochloride
  Crystal form by XRD: transforms to crystal form II
